Results on 19 molecules are retold here after paper PMC6152116, “Sulfonamide-Linked Ciprofloxacin, Sulfadiazine and Amantadine Derivatives as a Novel Class of Inhibitors of Jack Bean Urease; Synthesis, Kinetic Mechanism and Molecular Docking” (Molecules : A Journal of Synthetic Chemistry and Natural …, 2017).

“And” between values parts separate entries of the source, which are not always exact repeats. Equal entries are not always repeated. “Also recorded” adds a separate entry of the source. Where two headings read alike, the source gives them in different places.

Series [1] has as its target T1, jack bean urease (Canavalia ensiformis, UniProt P07374). Put plainly: biochemical.
Protocol: The jack bean urease action was determined by measuring the ammonia produced by the indophenol method described by Weatherburn. The reaction mixtures, containing 50 µL of buffer (100 mM urea, 10 mM dibasic potassium phosphate, 1 mM EDTA and 10 mM LiCl, pH 8.2), 20 µL of sample and 20 µL of the jack bean urease (5 U/mL) were added in a 96-well plate and the plate was incubated at 37 °C for 30 min. After incubation, 50 μL of phenol reagent (1%, w/v phenol and 0.005%, w/v sodium nitroprusside) and 50 μL of alkali reagents (0.5%, w/v NaOH and 0.1% NaOCl) were added in each well, and again the plate was incubated at 37 °C for 10 min. After the second incubation, the absorbance was checked at 625 nm, using a microplate reader (OPTIMax, Tunable, Sunnyvale, CA, USA). All reactions were performed in triplicate. The urease inhibition activity was calculated according to the following formula:Inhibition (%) = [(B − S)/B] × 100 where B and S are the optical densities of sample and blank. Thiourea was used as reference.
Series [2] addresses T1, jack bean urease. Put plainly: Kinetic mechanism study of urease inhibition (Lineweaver–Burk plots). In kind it is biochemical. As to conditions: for Ki′ (ESI dissociation constant): from intercept versus inhibitor concentration; for Inhibition Type: urea as substrate. The procedure:
Kinetic analysis was carried out to determine the mode of inhibition. […] Kinetics were determined by varying the dose of urea in the presence of different doses of compound 3e (0.025, 0.05, 0.01 and 0.02 µM), compound 6a (0.00, 0.0011, 0.0022, and 0.0044 µM), compound 9e (0.00, 0.015, 0.03 and 0.06 µM) and compound 12d (0.0130, 0.026, 0.052, 0.104 and 0.208 µM). In detail the urea doses were varied between 100, 50, 25, 12.5, 6.25 and 3.125 mM mM for urease kinetics studies and the rest of the procedure was same for all kinetic studies as described in the urease inhibition assay protocol. Maximal initial velocities were determined from the initial linear portion of the absorbances up to 10 min after the addition of enzyme at per minute’s intervals. The inhibition type of the enzyme was assayed by Lineweaver–Burk plots of the inverse of velocities (1/V) versus the inverse of substrate concentration 1/[S] mM^−1. The EI dissociation constant Ki was determined by the secondary plot of 1/V versus inhibitor concentration and the ESI dissociation constant Ki′ was calculated from the intercept versus inhibitor concentrations. Urease activity was determined by measuring ammonia production using the indophenol method as reported previously. The results (change in absorbance per min) were recorded at 625 nm using a microplate reader (Optimax Tunable, Sunnyvale, CA, USA).

The nature of series [3]: Free radical scavenging assay (DPPH). The following applies: in comparison to the reference drug vitamin C. How it is done:
Radical scavenging activity was determined by adjusting the already reported 2,2-diphenyl-1-picrylhydrazyl (DPPH) assay method. The assay arrangement comprised 100 µL of DPPH (150 µM), 20 µL of increasing concentrations of test compounds and the volume was adjusted to 200 µL in each well with DMSO. At a room temperature, the reaction mixture was incubated for 30 min. Ascorbic acid (Vitamin C) was utilized as a model inhibitor. The assay estimations were done by using a micro plate reader (OPTIMax, Tunable, Sunnyvale, CA, USA) at 517 nm. The response rates were analyzed and the percent inhibition caused by the presence of the tested inhibitor was calculated. Each concentration was analyzed in three independent experiments run thrice.
A general note: The DPPH test is a chemical assay of radical scavenging.

Setting [4] is: 100 mM urea, pH 8.2, 37 °C, read-out: Urease Activity IC50 ± SEM.
Setting [5] is: Urease Activity IC50 ± SEM, 100 mM urea, pH 8.2, 37 °C.

T1 sequence (P07374 whole entry, looked up): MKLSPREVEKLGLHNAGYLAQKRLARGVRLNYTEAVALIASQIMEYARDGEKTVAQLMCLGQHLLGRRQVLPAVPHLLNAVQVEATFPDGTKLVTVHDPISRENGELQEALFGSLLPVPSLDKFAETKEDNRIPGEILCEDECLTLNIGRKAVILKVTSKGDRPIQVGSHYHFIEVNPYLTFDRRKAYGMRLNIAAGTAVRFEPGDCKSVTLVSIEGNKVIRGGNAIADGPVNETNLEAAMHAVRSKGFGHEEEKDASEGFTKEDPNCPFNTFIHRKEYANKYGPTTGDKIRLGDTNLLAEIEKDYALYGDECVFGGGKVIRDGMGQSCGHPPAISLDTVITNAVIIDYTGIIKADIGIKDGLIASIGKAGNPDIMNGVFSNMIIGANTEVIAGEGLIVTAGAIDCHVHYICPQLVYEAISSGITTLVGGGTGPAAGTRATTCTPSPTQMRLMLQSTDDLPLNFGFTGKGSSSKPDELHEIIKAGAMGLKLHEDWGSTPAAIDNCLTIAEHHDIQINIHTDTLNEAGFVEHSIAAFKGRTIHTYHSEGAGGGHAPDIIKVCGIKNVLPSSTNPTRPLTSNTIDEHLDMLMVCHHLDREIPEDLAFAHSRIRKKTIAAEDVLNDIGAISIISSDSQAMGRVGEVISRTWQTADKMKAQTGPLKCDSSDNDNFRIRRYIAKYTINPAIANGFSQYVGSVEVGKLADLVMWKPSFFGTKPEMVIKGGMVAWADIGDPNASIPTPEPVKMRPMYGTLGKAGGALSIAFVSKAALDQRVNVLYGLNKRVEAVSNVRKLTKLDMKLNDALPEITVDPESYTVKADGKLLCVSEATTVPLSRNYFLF

As to “2-((2,3-Dichlorophenyl)sulfonyl)hydrazine-1-carbothioamide [Compound 6d]”, the 50% inhibitory concentration (IC50) at jack bean urease [1] (setting [4]) was 95 ± 4 nM.

Consider “2-((3,5-Dimethylphenyl)sulfonyl)hydrazine-1-carbothioamide [Compound 6e]”, for which, on jack bean urease [1] (setting [4]), the 50% inhibitory concentration (IC50) is 174 ± 9 nM.

As to “2-((4-Methyl-3-nitrophenyl)sulfonyl)hydrazine-1-carbothioamide [Compound 6f]”, at jack bean urease [1] (setting [4]), the IC50 came to 127 ± 7.6 nM.

Turning to `Cc1ccc(S(=O)(=O)Nc2ccc(S(=O)(=O)Nc3ncccn3)cc2)cc1` [Compound 6a, 4-Methyl-N-(4-(N-(pyrimidin-2-yl)sulfamoyl)phenyl)benzenesulfonamide], the melting point fell in the range of 223 to 225 °C. Besides, on jack bean urease [2], affinity was put at a Ki of 1.1 nM, the “Ki′ (ESI dissociation constant)” value came out at 1.6 nM and the “Inhibition Type” value is reported as “mixed type of mode inhibition”. The Vmax on jack bean urease [2] (inhibitor dose 0.0011 µM) is listed as 0.00769 ΔA/Min. Also, the Vmax on jack bean urease [2] (inhibitor dose 0.0022 µM) is 0.00493 ΔA/Min. At jack bean urease [2] (inhibitor dose 0.0044 µM), the Vmax is reported as 0.00351 ΔA/Min. Also, on jack bean urease [1] (setting [5]), the half-inhibitory concentration (IC50) is 2.23 nM and 2.2 nM and 2 nM.

With `O=[N+]([O-])c1ccccc1S(=O)(=O)Nc1ccc(S(=O)(=O)Nc2ncccn2)cc1` [Compound 6b, 2-Nitro-N-(4-(N-(pyrimidin-2-yl)sulfamoyl)phenyl)benzenesulfonamide], the IC50 on jack bean urease [1] (read-out: Urease Activity IC50 ± SEM, 100 mM urea, pH 8.2, 37 °C) turned out to be 233 ± 11 nM.

In turn, `O=S(=O)(Nc1ccc(S(=O)(=O)Nc2ncccn2)cc1)c1ccc(-c2ccccc2)cc1` [Compound 6c, N-(4-(N-(pyrimidin-2-yl)sulfamoyl)phenyl)-[1,1′-biphenyl]-4-sulfonamide] yielded a melting point of 168 to 170 °C. The same molecule came in with an IC50 on jack bean urease [1] (setting [5]) of 141 ± 7 nM.

The molecule `Cc1ccc(S(=O)(=O)NC23CC4CC(CC(C4)C2)C3)cc1` [Compound 9a, N-(Adamantan-1-yl)-4-methylbenzenesulfonamide] returned an IC50 on jack bean urease [1] (setting [5]) of 289 ± 15 nM.

Regarding `O=[N+]([O-])c1ccc(S(=O)(=O)NC23CC4CC(CC(C4)C2)C3)cc1` [Compound 9b, N-(Adamantan-1-yl)-4-nitrobenzenesulfonamide], the IC50 at jack bean urease [1] (setting [5]) is 27.6 ± 1 nM.

For the molecule `O=S(=O)(NC12CC3CC(CC(C3)C1)C2)c1ccc(-c2ccccc2)cc1` [Compound 9c, N-(Adamantan-1-yl)-[1,1′-biphenyl]-4-sulfonamide], inhibition on jack bean urease [1] (setting [5]) was half-maximal at 17.8 nM (IC50).

Turning to `O=S(=O)(NC12CC3CC(CC(C3)C1)C2)c1cccc(Cl)c1Cl` [Compound 9d, N-(Adamantan-1-yl)-2,3-dichlorobenzenesulfonamide], the melting point fell in the range of 221 to 230 °C. Moreover, at jack bean urease [1] (setting [5]), the IC50 is 53.3 ± 1 nM.

In turn, `Cc1cc(C)cc(S(=O)(=O)NC23CC4CC(CC(C4)C2)C3)c1` [Compound 9e, N-(Adamantan-1-yl)-3,5-dimethylbenzenesulfonamide] yielded a melting point of 162 to 164 °C. On jack bean urease [2], the affinity, expressed as Ki, was 22.5 nM and the “Inhibition Type” value was “non-competitive mode of inhibition; also recorded: non-competitive mechanism; also recorded: Noncompetitive”. Also, the Vmax at jack bean urease [2] (inhibitor dose 0.013 µM) is given as 0.00299 ΔA/Min. The Vmax at jack bean urease [2] (inhibitor dose 0.015 µM) is reported as 0.00127 ΔA/Min. Also, the Vmax at jack bean urease [2] (inhibitor dose 0.03 µM) is given as 0.00108 ΔA/Min. Besides, the Vmax at jack bean urease [2] (inhibitor dose 0.06 µM) is 0.00085 ΔA/Min. The molecule also showed a 50% inhibitory concentration (IC50) on jack bean urease [1] (setting [5]) of 25 nM.

As to `Cc1ccc(S(=O)(=O)NC23CC4CC(CC(C4)C2)C3)cc1[N+](=O)[O-]` [Compound 9f, N-(Adamantan-1-yl)-4-methyl-3-nitrobenzenesulfonamide], at jack bean urease [1] (setting [5]), the half-maximal inhibitory concentration (IC50) came to 55.8 ± 1 nM.

As to `Cc1ccc(S(=O)(=O)NNC(N)=S)cc1` [Compound 12a, 2-Tosylhydrazine-1-carbothioamide], the radical scavenging potency result in series [3] is recorded as “excellent radical scavenging potency”. In addition, 225 ± 6 nM corresponded to half-maximal inhibition at jack bean urease [1] (setting [5]) (IC50).

Turning to `NC(=S)NNS(=O)(=O)c1ccc([N+](=O)[O-])cc1` [Compound 12b, 2-((4-Nitrophenyl)sulfonyl)hydrazine-1-carbothioamide], the melting point lay in the range of 160 to 162 °C. For the same molecule, the radical scavenging potency result in series [3] is on record as “excellent radical scavenging potency”. Also, half-maximal inhibition against jack bean urease [1] (setting [5]) (IC50) required 141 ± 4 nM.

The molecule `NC(=S)NNS(=O)(=O)c1ccc(-c2ccccc2)cc1` [Compound 12c, 2-([1,1′-Biphenyl]-4-ylsulfonyl)hydrazine-1-carbothioamide] yielded a half-inhibitory concentration (IC50) on jack bean urease [1] (setting [5]) of 186 ± 7 nM.

For `NC(=S)NNS(=O)(=O)c1cccc(Cl)c1Cl` [Compound 12d, 2-((2,3-Dichlorophenyl)sulfonyl)hydrazine-1-carbothioamide], the melting point was 229 to 231 °C. In addition, the radical scavenging potency result in series [3] was “excellent radical scavenging potency”. On jack bean urease [2], the Ki came out at 53 nM, the “Ki′ (ESI dissociation constant)” value came to 125 nM and the “Inhibition Type” value is listed as “mixed type of mode inhibition”. In addition, at jack bean urease [2] (inhibitor dose 0.026 µM), the Vmax was 0.00213 ΔA/Min. For the same molecule, at jack bean urease [2] (inhibitor dose 0.052 µM), the Vmax is recorded as 0.00194 ΔA/Min. Also, the Vmax at jack bean urease [2] (inhibitor dose 0.104 µM) was 0.0016 ΔA/Min. Further, on jack bean urease [2] (inhibitor dose 0.208 µM), the Vmax is given as 0.001 ΔA/Min. For the same molecule, the half-maximal inhibitory concentration (IC50) on jack bean urease [1] (setting [5]) was 26.6 nM and 26 nM.

On to `Cc1cc(C)cc(S(=O)(=O)NNC(N)=S)c1` [Compound 12e, 2-((3,5-Dimethylphenyl)sulfonyl)hydrazine-1-carbothioamide], for which the melting point is 160 to 162 °C. Besides, the radical scavenging potency entry in series [3] is given as “excellent radical scavenging potency”. At jack bean urease [1] (setting [5]), the half-inhibitory concentration (IC50) turned out to be 96 ± 4 nM.

On to `Cc1ccc(S(=O)(=O)NNC(N)=S)cc1[N+](=O)[O-]` [Compound 12f, 2-((4-Methyl-3-nitrophenyl)sulfonyl)hydrazine-1-carbothioamide], for which the melting point lay within 160 to 163 °C. For the same molecule, the radical scavenging potency result in series [3] is given as “excellent radical scavenging potency”. Also, it took 67 ± 2.9 nM to reach half-maximal inhibition on jack bean urease [1] (setting [5]) (IC50).

As for `NC(N)=S` [Thiourea, reference compound], the half-maximal inhibitory concentration (IC50) at jack bean urease [1] (setting [4]) came to 17810 ± 96 nM.

One may read the IC50 as the midpoint of a concentration-inhibition curve. For orientation: melting point means the temperature of the solid-liquid transition. By Ki is commonly meant the dissociation constant of the complex between target and ligand, obtained from inhibition or displacement. The low end stands for a stronger hold on the target, the high end for a looser hold on the target.
